According to patent US8119684B2, “Thiophene derivatives for up-regulating HLA-DM activity” (Dana-Farber Cancer Institute, Inc., priority 2003, dated 2012):

How the values were obtained:
[1] = target: T1, HLA-DM catalyzed peptide exchange on HLA-DR2 (Homo sapiens, UniProt P28067+P28068); experiment: Antigen Presentation Screen: fluorescence polarization association assay of Alexa 488-labeled MBP 85-99 binding to HLA-DR2b/CLIP in the presence of HLA-DM; format: biochemical
T1 construct: made in house; host or cells: HLA-DM: S2 insect cells; HLA-DR2b: COS cells; peptides synthesized by New England Peptide, Inc
T1 sequence (P28067 27-233 limits assumed): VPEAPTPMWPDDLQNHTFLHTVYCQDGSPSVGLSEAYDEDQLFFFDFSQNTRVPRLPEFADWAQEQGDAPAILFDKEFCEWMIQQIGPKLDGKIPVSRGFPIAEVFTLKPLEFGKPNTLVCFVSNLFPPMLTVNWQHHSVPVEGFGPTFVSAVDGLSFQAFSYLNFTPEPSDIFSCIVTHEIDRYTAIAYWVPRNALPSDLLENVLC
T1 sequence (P28068 19-218 limits assumed): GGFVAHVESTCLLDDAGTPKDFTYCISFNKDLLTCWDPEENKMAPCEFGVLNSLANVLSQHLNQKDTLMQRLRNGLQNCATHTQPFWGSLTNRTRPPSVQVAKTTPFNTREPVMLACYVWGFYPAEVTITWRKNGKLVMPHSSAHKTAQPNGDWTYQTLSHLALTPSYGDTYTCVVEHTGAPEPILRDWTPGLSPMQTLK
Source text: In one detailed aspect of the invention, an assay is described below for detecting and monitoring HLA-DM catalyzed peptide exchange. In particular, the kinetics of peptide exchange can be evaluated and the effects on such kinetics of test compounds can be evaluated. A labeled peptide, such as a fluorescently labled MBP peptide, can be visualized binding to isolated HLA-DR2 in the presence of HLA-DM by Fluorescence Polarization (FP). FP can detect the motion of a fluorescently labeled peptide such as MBP (85-99). The FP detected increases when a fluorescently labeled peptide binds to a receptor. This assay may allow peptide binding to HLA-DR2 to be monitored in real time without interrupting the reaction. In this manner, a number of readings can be made at different times during a single assay. This can provide information about the rate of transfer of a peptide, leading to the identification of compounds that increase or decrease the rate of peptide exchange. It may also lead to the identification of compounds that decrease the rate of peptide exchange by directly preventing peptide binding to MHC class II.
In the assay described below (Antigen Presentation Screen), Fluorescence Polarization (FP) can be used to monitor the kinetics, including the exchange rate, of exchanging CLIP for myelin basic protein (MBP) peptide on isolated HLA-DR2. MBP peptide consisting of amino acids 85-99 of Myelin Basic Protein is labeled with the fluorescent dye Alexa 488 at the P5 position. The CLIP may be unlabled. A system of isolated HLA-DR2 containing CLIP and labeled MBP peptide are incubated in the presence of HLA-DM. The system may be exposed to test compounds and FP can be used to measure the rate of exchange of CLIP for MBP for each test compound, including a control. A change in fluorescence polarization is monitored and/or recorded using a 485 nm excitation filter and a 530 nm emission filter in a LJL Analyst. Fluorescence readings taken at time intervals can indicate how fast CLIP is being exchanged for MBP in the presence of HLA-DM.
Proteins: HLA-DR2b containing the CLIP peptide in PBS buffer synthesized by COS cells with covalently linked CLIP peptide. The linker is cut with the addition of 25 U/ml of Thrombin (Novagen 69671) (2 hr incubation at 37° C.) and blocked with Pefablock (Roche 1429-868).
HLA-DM in PBS buffer, synthesized in S2 insect cells. Purified on a anti-FLAG column with a high pH elution (50 mM CAPS pH 11.5)
Peptides: MBP 85-99 (Alexa 488 at P5 position) in H2O
• 1. Add 0.4 μl of library compound in 100% DMSO to wells (see FIG. 7) containing HLA-DR2b. (Library compounds at 50 mM). Also add 0.4 μl DMSO to all control wells during this step. This step can be carried out days before screening commences. • 2. Add 35 μl of 50 mM Citrate pH5.2/150 mM NaCl buffer to wells M23, […], N23 and N24. Add 40 μl of 50 mM Citrate pH 5.2/150 mM NaCl buffer to wells O23, O24, P23 and P24. Add 35 μl of 114 nM HLA-DR2b in 50 mM Citrate pH 5.2/150 mM NaCl buffer to appropriate wells in 384 well plate as shown below in FIG. 9. Make 114 nM HLA-DR2b solution fresh and keep cold until just before addition of library compounds • 5. By hand add 1 μl of MBP 85-99 (unlabeled) titration to control wells as described below in FIG. 10. • 6. Mix HLA-DR2b and compound by shaking with plate shaker for 1 minute. • 7. Incubate HLA-DR2b and compound for 30 minutes at room temperature. • 8. By hand add 5 μl of 80 nM MBP 85-99 (Alexa 488 at P5 position) to control wells (FIG. 11) as described below while plate is incubating at room temperature. • 9. During 30 minute incubation read plates for Fluorescent Intensity using the Analyst (Molecular Devices) Parameters described below. This step is optional if Fluorescent Intensity references have already been read for the compounds being screened. • 10. Add 5 p. 1 of MBP/DM mix (80 nM MBP 85-99 (Alexa 488 at P5 position)/800 nM HLA-DM in 50 mM Citrate pH 5.2/150 mM NaCl buffer) to begin reaction. […]

[2] = target: T1, HLA-DM catalyzed peptide exchange on HLA-DR2; experiment: Dissociation assay: MBP peptide dissociating from HLA-DR2 in the presence of HLA-DM and 100-fold excess unlabeled MBP; format: biochemical; settings: FIG. 5, F15 versus DMSO
Source text: FIG. 5b illustrates graphically a dissociation assay of MBP peptide dissociating from HLA-DR2 in the presence of HLA-DM and 100-fold excess unlabeled MBP in the peptide for both F15 and DMSO;
FIGS. 5a and 5b graphically illustrate the dose reponse curve for compound F15 for disassociation (5a) and association (5b) assays.

With `N#CC1=C(SC2CCCCC2)CC(C(=O)O)=C1c1ccc(Cl)cc1` [Compound F15] the “increase in binding (FP) compared to the control” value ([1]; 30 minute sampling time, FIG. 3) was “about 25%”, the “acceleration of peptide exchange over the control (factor)” value ([1]; F15 at 10 uM, FIG. 4) was 3 and the “Vmax (initial velocity of MBP/HLA-DR2 binding)” value ([1]; F15 at 10 uM, increasing levels of DR2b, HLA-DM present, FIG. 4, control Vmax 0.02521) was 0.07611. For the same molecule, the “dose response curve, association assay” value ([1]; FIG. 5, F15 versus DMSO) was “substantial effect even at very low concentrations”, the “concentration at which a significant increase in the rate of peptide exchange is seen (as low as)” value ([1]; association assay, FIG. 3, various concentrations of F15) was 1 µM and the “total amount of peptide exchange compared to the control” value ([1]; over a 6 hour period, FIG. 3) was “about equal”. The “dose response curve, dissociation assay” value [2] was “substantial effect even at very low concentrations”.
